US11299453B2 (Universität zu Köln, priority 2017, dated 2022)
Where two headings read alike, the source gives them in different places.

Columns and labels:
murine and human PSCs = experiment: Dose response assays, statements over murine and human PSCs; format: cell-based; conditions: for IC50: iPSC, 48 h, read-out: IC50 values, range over murine iPSC line, two murine ESC lines and human iPSC line
Experimental: (§1) Serial dilutions of DMSO stock solutions of PluriSIn #1 (Sigma-Aldrich, catalog number SML0682) or one of small molecules SM1-SM10, were prepared from 20 mM stock solutions with cell culture medium. Murine PSCs were dissociated with 0.05% trypsin-EDTA, seeded on 0.1% gelatin-coated 96-well plates with a density of 5000 cells/well and cultured in maintenance medium supplemented with 1000 U/ml of mLIF. After 1 day, cells were incubated with 40 μM PluriSIn #1 and derivatives for 72 h or with 0.01-25 μM SMs for 48 h, respectively. For treatment of corresponding PSC-derived CMs with SMs, puromycin-selected miPSC-CMs from day 14 of differentiation were dissociated with 0.25% trypsin-EDTA as described above and plated on 96-well plates (5×10^4 cells/well) which were pre-coated with 5 μg/ml fibronectin (PromoCell, Heidelberg, Germany). After culturing miPSC-CMs with 8 μg/ml puromycin for 2 more days, they were incubated in differentiation medium supplemented with 0.1-100 μM of SMs for 48-72 h. Following small molecule treatment, cell viability was determined with PrestoBlue cell viability reagent (Life Technologies). To this end, cells were washed with PBS (with calcium and magnesium, Life Technologies) and incubated with PrestoBlue reagent diluted in cell culture medium for 40 min at 37° C.
(§2) Fluorescence intensities correlating with the number of viable cells in the wells were measured in black flat-bottom 96-well plates (Greiner Bio-One, Kremsmünster, Austria) with a GeniosPro microplate reader (Tecan, Männedorf, Schweiz).
IC50 values were determined by regression analysis of dose-response curves upon logarithmic transformation. Microscopic images of PSCs were taken with a Zeiss Axiovert 100 inverted microscope and GFP images of CMs were captured with a Zeiss Axiovert 200M fluorescence microscope (both Carl Zeiss, Oberkochen, Germany) and analyzed with Zeiss Axiovision 4.5 software (Carl Zeiss).
In order to quantify compound cytotoxicity, dose response assays were performed by treating PSCs with compound concentrations between nontoxic 0.01 μM and PSC-eliminating 10 μM for 48 h. Murine iPSCs αPIG-AT25, embryonic stem cell lines αPIG44-D3 and R1, and human induced pluripotent stem cell (hiPSC) line NP0014-C6 were used. Cell culture and dose response assays were performed as described above.

[1] = Cell viability (PrestoBlue) of miPSC-derived cardiomyocytes; format: cell-based, murine; conditions: mouse, αPIG-AT25 miPSC-derived cardiomyocytes (puromycin-selected), 10 μM, 72 h of exposure
Experimental: The differentiation of transgenic mPSCs was initiated in mass cultures as briefly described below. One million cells were transferred per non-adhering 10 cm dish with 14 ml differentiation medium composed of Iscove's Modified Dulbecco's Medium (IMDM) with GlutaMAX (Life Technologies) supplemented with 20% FBS, 1×NEAA and 100 μM β-ME. Embryoid bodies (EBs) from day 2 of differentiation were transferred in a 250 ml spinner flask (CELLSPIN 250, Integra Biosciences, Fernwald, Germany) with a density of 3×10^4 EBs per 200 ml of differentiation medium. On the first 2 days of differentiation medium was supplemented with 50 μg/ml L-ascorbic acid phosphate (AA, Wako pure chemicals industry, Japan) in order to promote the development of cardiac cells. For the selection of GFP-expressing CMs, 50 ml of the medium was exchanged with fresh differentiation medium and 8 μg/ml puromycin (Life Technologies) were supplemented on day 9 of differentiation. Two days later, the cardiac clusters were transferred on non-adhering 10 cm dishes with fresh differentiation medium containing 8 μg/ml puromycin. In the further course of differentiation medium was exchanged every 2-3 days. If not otherwise specified, the purification of GFP-positive CMs with puromycin was continued until day 16 of differentiation. For single cell analyses and transfer of PSC-derived CMs on cell culture plates, cardiac clusters were dissociated with 0.25% trypsin-EDTA (Life Technologies) supplemented with 50 U/ml DNase I (AppliChem, Darmstadt, Germany) for 20-30 min at 37° C. The mPSC-derived CMs were filtered through a polyamide membrane with […] pore size (Sefar, Heiden, Switzerland). Cell numbers were determined with a Neubauer hemocytometer and cells were stored on ice until further use.
as §1, §2
The selectivity of compounds was investigated by comparing their cytotoxicity against undifferentiated iPSCs and iPSC-derived CMs. Murine iPSCs αPIG-AT25 were incubated for 48 h with compounds SM1, SM2, SM4, SM5, SM6 and SM8 in concentrations of 0.01 to 10 μM. Cell culture and cardiac differentiation were performed as described above. Experiments were run at least in quadruplicate. The cell viability was determined using PrestoBlue cell viability reagent.
The viability of salicylic diamine-treated CMs was confirmed by 72 h of exposure to concentrations of 0.01 μM, 0.1 μM, 1 μM, 10 μM and 25 μM of compounds SM1, SM2, SM4, SM5, SM6 and SM8.

miPSC-CM monolayers = experiment: Cardiomyocyte contraction rate by video imaging; format: cell-based, murine; conditions: 10 μM, 48 h treatment
Experimental: The effect of compound treatment on CM beating frequency was determined by video imaging of iPSC-CM monolayers after exposure to SMs. On day 14 of differentiation puromycin-selected miPSC-CMs were plated on a fibronectin-coated multi-well cell culture plate (10^5 cells/cm^2). […] Following SM treatment, cells were washed twice with PBS (with calcium and magnesium) and cultured for 72 h in fresh differentiation medium. […] The number of beats per each video sequence was quantified and the contraction rate was calculated in beats per minute.
Further, the effect of compound treatment on the CM beating frequency was determined by video imaging of iPSC-CM monolayers after exposure to compounds as described above.

[2] = tested on: αPIG-AT25 miPSC-derived cardiomyocytes; experiment: Cell viability (PrestoBlue) of miPSC-derived cardiomyocytes; format: cell-based, murine; conditions: 48 h treatment
[3] = read-out: decrease of cardiomyocyte viability
[4] = read-out: decrease of cardiomyocyte viability, in average over SM1, SM4 and SM8

Row | IC50 (murine and human PSCs) | decrease of contraction rate of CMs compared to DMSO-treated control (miPSC-CM monolayers) | SMILES | cytotoxicity at 72 h, 10 μM [1, 3] | microscopic analysis of CM monolayers [2] | cytotoxicity at 72 h, 10 μM [1, 4] | effect on pluripotent stem cells (murine and human PSCs; 10 μM, two day-treatment)
1 | 100 to 5000 nM |  | Oc1c(CN[C@@H]2CCCC[C@H]2NCc2cccc(-c3ccccc3)c2O)cccc1-c1ccccc1 [SM4, (1R,2R)-N,N′-di[(2-hydroxy-3-phenyl)-benzyl]-1,2-diaminocyclohexane] |  |  | 79.8 ± 14.7% | 
2 | 100 to 5000 nM |  | Oc1c(CNC2CCCC[C@@H]2NCc2cccc(-c3ccccc3)c2O)cccc1-c1ccccc1 (stereo partly drawn) [SM1, (1S,2S)-N,N′-di[(2-hydroxy-3-phenyl)-benzyl]-1,2-diaminocyclo-hexane] |  |  | 79.8 ± 14.7% | 
3 |  | 71.37±26.91% | Oc1c(CNC2CCCC[C@@H]2NCc2cccc(-c3ccccc3)c2O)cccc1-c1ccccc1 (stereo partly drawn) [SM8, (1S,2R)-N,N′-di[(2-hydroxy-3-phenyl)-benzyl]-1,2-diaminocyclohexane] |  | intact CM monolayers |  | 

More lines, now with the values behind:

Row | SMILES | IC50 (murine and human PSCs) | decrease of contraction rate of CMs compared to DMSO-treated control (miPSC-CM monolayers) | cytotoxicity at 72 h, 10 μM [1, 3] | microscopic analysis of CM monolayers [2] | cytotoxicity at 72 h, 10 μM [1, 4] | effect on pluripotent stem cells (murine and human PSCs; 10 μM, two day-treatment)
4 | Oc1c(/C=N/[C@H]2CCCC[C@@H]2NCc2cccc(-c3ccccc3)c2O)cccc1-c1ccccc1 [SM2, (1S,2S)-N-[(2-hydroxy-3-phenyl)-benzyl]-N′-[(2-hydroxy-3-phenyl)-benzylidene]-1,2-diaminocyclohexane] | 100 to 5000 nM | 61.02±2.67% | 18.5 ± 7.06% | intact CM monolayers |  | 
5 | Oc1c(/C=N/[C@@H]2CCCC[C@H]2NCc2cccc(-c3ccccc3)c2O)cccc1-c1ccccc1 [SM5, (1R,2R)-N-[(2-hydroxy-3-phenyl)-benzyl]-N′-[(2-hydroxy-3-phenyl)-benzylidene]-1,2-diaminocyclohexane] | 100 to 5000 nM |  | 14.1 ± 13.8% |  |  | 
6 | Oc1ccccc1CN[C@@H]1CCCC[C@H]1NCc1ccccc1O [SM6, (1R,2R)-N,N′-di(2-hydroxybenzyl)-1,2-diaminocyclohexane] | 100 to 5000 nM | 24.26±15.71% | 11 ± 13.2% | intact CM monolayers |  | elimination of pluripotent stem cells
